One test deals with Nav1.8 (Homo sapiens, UniProt Q9Y5Y9). It counts as biochemical.
Test [1] has as its system Wild-type (WT) Tetrahymena cells. The test is described as follows: Fluorescent toxin labeling of fixed wild-type control Tetrahymena cells. It is filed as binding, Tetrahymena thermophila. Particulars: 10 nM, 30 minutes at RT.
Test [2] has as its target T1, Kv1.3 (Homo sapiens, UniProt P22001).
T1 construct: expressed in transfected cells; host or cells: Tetrahymena thermophila (transformed, CdCl2-induced, paraformaldehyde-fixed)
The test is described as follows: Fluorescent toxin labeling of fixed Kv1.3 expressing Tetrahymena cells (confocal microscopy). It counts as binding. Particulars: 10 nM, 30 minutes at RT.

Test [3] deals with T1, Kv1.3. The test is described as follows: Competition of ShK-TAMRA labeling of Kv1.3 expressing cells by non-labeled toxins. It is filed as binding. To be noted: 100 nM (saturating) toxin co-incubated with 10 nM ShK-TAMRA.

No end group written: not given here.

T1 sequence (P22001 whole entry): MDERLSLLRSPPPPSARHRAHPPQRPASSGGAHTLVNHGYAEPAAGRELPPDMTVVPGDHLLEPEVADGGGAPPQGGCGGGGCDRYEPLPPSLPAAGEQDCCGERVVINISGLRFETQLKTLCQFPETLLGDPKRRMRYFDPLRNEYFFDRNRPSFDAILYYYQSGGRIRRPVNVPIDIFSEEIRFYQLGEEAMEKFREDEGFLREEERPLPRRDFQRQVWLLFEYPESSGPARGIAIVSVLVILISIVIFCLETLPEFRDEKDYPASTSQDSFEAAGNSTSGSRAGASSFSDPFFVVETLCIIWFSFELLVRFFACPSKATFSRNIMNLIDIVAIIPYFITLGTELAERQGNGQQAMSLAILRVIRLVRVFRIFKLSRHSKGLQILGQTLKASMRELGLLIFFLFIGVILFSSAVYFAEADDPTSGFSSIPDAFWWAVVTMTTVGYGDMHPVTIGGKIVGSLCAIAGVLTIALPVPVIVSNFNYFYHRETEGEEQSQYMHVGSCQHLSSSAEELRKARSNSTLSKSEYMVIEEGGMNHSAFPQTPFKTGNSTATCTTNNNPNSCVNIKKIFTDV
Chain of Nav1.8 (Q9Y5Y9 whole entry): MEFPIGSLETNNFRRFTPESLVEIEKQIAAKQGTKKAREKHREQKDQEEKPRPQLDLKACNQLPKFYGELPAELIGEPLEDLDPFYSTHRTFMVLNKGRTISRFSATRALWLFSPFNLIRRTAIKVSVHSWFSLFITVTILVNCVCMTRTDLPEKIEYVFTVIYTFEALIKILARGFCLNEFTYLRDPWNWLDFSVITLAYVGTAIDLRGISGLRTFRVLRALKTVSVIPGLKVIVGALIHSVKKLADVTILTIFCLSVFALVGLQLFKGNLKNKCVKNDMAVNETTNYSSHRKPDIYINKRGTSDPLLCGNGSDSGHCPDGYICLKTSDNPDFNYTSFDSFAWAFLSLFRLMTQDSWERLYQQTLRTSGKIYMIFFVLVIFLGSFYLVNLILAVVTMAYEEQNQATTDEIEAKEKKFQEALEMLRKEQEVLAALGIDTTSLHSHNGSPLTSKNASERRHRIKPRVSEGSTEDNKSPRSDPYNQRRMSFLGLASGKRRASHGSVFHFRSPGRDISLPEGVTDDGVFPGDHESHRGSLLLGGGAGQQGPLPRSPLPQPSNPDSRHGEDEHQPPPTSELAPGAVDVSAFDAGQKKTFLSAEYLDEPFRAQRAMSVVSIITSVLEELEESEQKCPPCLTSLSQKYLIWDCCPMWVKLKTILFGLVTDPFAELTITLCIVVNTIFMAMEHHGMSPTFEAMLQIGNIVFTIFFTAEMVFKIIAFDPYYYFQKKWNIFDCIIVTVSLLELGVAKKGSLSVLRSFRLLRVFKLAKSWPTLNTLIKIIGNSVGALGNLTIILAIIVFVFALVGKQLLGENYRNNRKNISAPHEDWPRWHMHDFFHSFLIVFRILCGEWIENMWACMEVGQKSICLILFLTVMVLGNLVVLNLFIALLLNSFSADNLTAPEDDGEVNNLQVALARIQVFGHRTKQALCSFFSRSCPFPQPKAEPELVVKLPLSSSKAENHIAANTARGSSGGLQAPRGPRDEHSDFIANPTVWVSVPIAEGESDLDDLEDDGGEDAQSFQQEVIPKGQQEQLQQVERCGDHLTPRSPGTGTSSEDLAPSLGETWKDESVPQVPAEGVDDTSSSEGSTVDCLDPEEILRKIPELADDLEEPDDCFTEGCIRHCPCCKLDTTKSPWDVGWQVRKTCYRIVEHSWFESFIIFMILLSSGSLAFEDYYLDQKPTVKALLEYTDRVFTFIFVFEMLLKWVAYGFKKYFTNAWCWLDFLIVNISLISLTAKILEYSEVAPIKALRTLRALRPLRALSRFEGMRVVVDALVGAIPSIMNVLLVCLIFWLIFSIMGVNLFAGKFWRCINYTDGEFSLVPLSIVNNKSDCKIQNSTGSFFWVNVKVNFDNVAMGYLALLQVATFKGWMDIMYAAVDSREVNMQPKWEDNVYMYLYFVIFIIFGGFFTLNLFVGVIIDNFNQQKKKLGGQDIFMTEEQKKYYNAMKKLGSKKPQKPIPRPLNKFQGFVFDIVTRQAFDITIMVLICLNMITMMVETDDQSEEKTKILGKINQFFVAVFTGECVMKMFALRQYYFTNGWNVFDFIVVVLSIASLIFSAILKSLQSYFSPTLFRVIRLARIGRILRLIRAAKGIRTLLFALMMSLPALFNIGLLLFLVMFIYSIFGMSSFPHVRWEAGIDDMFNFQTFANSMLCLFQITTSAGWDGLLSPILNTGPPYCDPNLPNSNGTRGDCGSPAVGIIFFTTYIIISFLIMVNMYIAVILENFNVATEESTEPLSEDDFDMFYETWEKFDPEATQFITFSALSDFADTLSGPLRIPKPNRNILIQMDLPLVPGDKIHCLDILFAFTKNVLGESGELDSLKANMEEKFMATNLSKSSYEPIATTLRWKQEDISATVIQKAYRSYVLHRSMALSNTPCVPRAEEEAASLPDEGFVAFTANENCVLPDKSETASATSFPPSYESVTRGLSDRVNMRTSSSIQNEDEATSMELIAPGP

In the case of `Cc1c[nH]c(C)c1C(=O)O[C@@H](C)C1=CC[C@@]23OCCN(C)C[C@@]12C[C@@H](O)[C@]12O[C@]4(O)CC[C@@]1(C)[C@H](CC=C32)C4` [BTX, batrachatoxin], the “channel activity following addition of activator” value at Nav1.8 (Nav1.8 proteoliposomes, 10× NaCl chemical gradient, 0 mV holding potential, no conductance before addition) was “channel activity was detected”. Further, the conductances at Nav1.8 (after addition of BTX, 10× NaCl chemical gradient, 0 mV holding potential) is recorded as 2-3 pA. With `NC1=N[C@H](O)[C@H]2[C@H]3O[C@]4(O)O[C@@H]([C@@H](O)[C@@]2(N1)[C@@H]4O)[C@]3(O)CO` [Tetrodotoxin], at Nav1.8, the “channel activity following addition of blocker” value is reported as “Activity was abolished”. Take Agitoxin-2-TAMRA [AgTX-2-TAMRA]: the “labeling of WT cells” value in test [1] is recorded as “No labeling”. Besides, in the test with Kv1.3 [2], the “binding to Kv1.3 expressing cells (cell surface labeling)” value is listed as “bound to Kv1.3 expressing cells”. Consider “Iberiotoxin (QFTDVDCSVSKECWSVCKDLFGVDRGKCMGKKCRCYQ; ends and bridges not checked; cysteine pairing not given here; UniProt P24663 1-37, looked up) [IbTX]”, for which, in the test with Kv1.3 [3], the “competition with ShK-TAMRA binding” value is recorded as “does not interfere with ShK-TAMRA binding”. The same measure, in the same setting: with “Margatoxin (TIINVKCTSPKQCLPPCKAQFGQSAGAKCMNGKCKCYPH; ends and bridges not checked; cysteine pairing not given here; UniProt P40755 1-39, looked up) [MgTX]” the entry was “competitive”. ShK-TAMRA: in test [1], the “labeling of WT cells” value is reported as “No labeling”. The “binding to Kv1.3 expressing cells (cell surface labeling)” value on Kv1.3 [2] is “bound to Kv1.3 expressing cells”.
